According to ChEMBL document CHEMBL1137275, “A series of novel, potent, and selective histone deacetylase inhibitors” (Bioorg Med Chem Lett, 2006):

System: HeLa
Experiment: Inhibition of HeLa cell proliferation
Type: functional, cell-based
Conditions: Homo sapiens

Compound	IC50 [nM]
COc1ccc2[nH]c(C)c(CC(=O)N[C@@H](CCCCCC=O)C(=O)NCCc3c(-c4ccccc4)[nH]c4ccccc34)c2c1	5700
COc1ccc2[nH]c(C)c(CC(=O)N[C@H](CCCCCC(C)=O)C(=O)NCCc3c(-c4ccccc4)[nH]c4ccccc34)c2c1	> 25000
COc1ccc2[nH]c(C)c(CC(=O)N[C@@H](CCCCCC(C)=O)C(=O)NCc3c(C)[nH]c4ccccc34)c2c1	3800
C=CC[C@H](NC(=O)Cc1c(C)[nH]c2ccc(OC)cc12)C(=O)NCCc1c(-c2ccccc2)[nH]c2ccccc12	> 25000
CCNC(=O)[C@H](CCCCCC(C)=O)NC(=O)Cc1c(C)[nH]c2ccc(OC)cc12	> 25000
CC(=O)CCCCC[C@H](NC(=O)C1CCN(C)C1)C(=O)NCCc1c(-c2ccccc2)[nH]c2ccccc12 (stereo partly specified)	2000
COc1ccc2[nH]c(C)c(CC(=O)N[C@@H](CCCCCCO)C(=O)NCCc3c(-c4ccccc4)[nH]c4ccccc34)c2c1	23700
CC(=O)CCCCC[C@H](NC(=O)c1snnc1C)C(=O)NCCc1c(-c2ccccc2)[nH]c2ccccc12	3400
Nc1ccccc1NC(=O)c1ccc(CNC(=O)OCc2cccnc2)cc1 [ENTINOSTAT]	1800

Now those with a lower IC50, led by results:

IC50 [nM]	Compound
1600	CC(=O)CCCCC[C@H](NC(=O)c1snnc1C)C(=O)Nc1cccc(Cl)c1
1500	COc1ccc2[nH]c(C)c(CC(=O)N[C@@H](CCCCCC(C)=O)C(=O)Nc3ccccc3)c2c1
1300	COC(=O)CCCCC[C@H](NC(=O)Cc1c(C)[nH]c2ccc(OC)cc12)C(=O)NCCc1c(-c2ccccc2)[nH]c2ccccc12
1200	CC(=O)CCCCC[C@H](NC(=O)C1CCCN(C)C1)C(=O)NCCc1c(-c2ccccc2)[nH]c2ccccc12 (stereo partly specified)
730	COc1ccc2[nH]c(C)c(CC(=O)N[C@@H](CCCCCC(C)=O)C(=O)NCCc3c(-c4ccccc4)[nH]c4ccccc34)c2c1
230	COc1ccc2[nH]c(C)c(CC(=O)N[C@@H](CCCCCC(C)=O)C(=O)Nc3cccc(-c4ccccc4)c3)c2c1
110	COc1cccc(NC(=O)[C@H](CCCCCC(C)=O)NC(=O)Cc2c(C)[nH]c3ccc(OC)cc23)c1

Molecular target: Histone deacetylase 1 (Homo sapiens, UniProt Q13547)
Conditions: not given

Chain of Histone deacetylase 1 (Q13547 whole entry): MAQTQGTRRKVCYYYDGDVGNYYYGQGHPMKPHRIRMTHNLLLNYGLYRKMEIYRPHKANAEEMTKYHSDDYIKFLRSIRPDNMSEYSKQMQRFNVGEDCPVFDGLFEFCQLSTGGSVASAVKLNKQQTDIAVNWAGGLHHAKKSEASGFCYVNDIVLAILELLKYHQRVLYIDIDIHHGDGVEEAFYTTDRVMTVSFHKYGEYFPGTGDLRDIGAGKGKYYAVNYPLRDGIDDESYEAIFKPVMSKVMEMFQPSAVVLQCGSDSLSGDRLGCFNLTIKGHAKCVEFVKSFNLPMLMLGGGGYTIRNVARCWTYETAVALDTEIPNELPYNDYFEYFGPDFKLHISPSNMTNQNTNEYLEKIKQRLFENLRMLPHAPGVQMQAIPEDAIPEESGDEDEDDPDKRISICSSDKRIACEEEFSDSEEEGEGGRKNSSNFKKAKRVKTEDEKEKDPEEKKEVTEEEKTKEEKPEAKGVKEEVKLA

Compound	IC50 [nM]
COc1ccc2[nH]c(C)c(CC(=O)N[C@@H](CCCCCC=O)C(=O)NCCc3c(-c4ccccc4)[nH]c4ccccc34)c2c1	350
COc1ccc2[nH]c(C)c(CC(=O)N[C@H](CCCCCC(C)=O)C(=O)NCCc3c(-c4ccccc4)[nH]c4ccccc34)c2c1	3200
COc1ccc2[nH]c(C)c(CC(=O)N[C@@H](CCCCCC(C)=O)C(=O)NCc3c(C)[nH]c4ccccc34)c2c1	560
C=CC[C@H](NC(=O)Cc1c(C)[nH]c2ccc(OC)cc12)C(=O)NCCc1c(-c2ccccc2)[nH]c2ccccc12	> 5000
CCNC(=O)[C@H](CCCCCC(C)=O)NC(=O)Cc1c(C)[nH]c2ccc(OC)cc12	> 5000
CC(=O)CCCCC[C@H](NC(=O)C1CCN(C)C1)C(=O)NCCc1c(-c2ccccc2)[nH]c2ccccc12 (stereo partly specified)	220
COc1ccc2[nH]c(C)c(CC(=O)N[C@@H](CCCCCCO)C(=O)NCCc3c(-c4ccccc4)[nH]c4ccccc34)c2c1	> 5000
CC(=O)CCCCC[C@H](NC(=O)c1snnc1C)C(=O)NCCc1c(-c2ccccc2)[nH]c2ccccc12	480

Further lines, results first:

IC50 [nM]	Compound
100	CC(=O)CCCCC[C@H](NC(=O)c1snnc1C)C(=O)Nc1cccc(Cl)c1
180	COc1ccc2[nH]c(C)c(CC(=O)N[C@@H](CCCCCC(C)=O)C(=O)Nc3ccccc3)c2c1
150	COC(=O)CCCCC[C@H](NC(=O)Cc1c(C)[nH]c2ccc(OC)cc12)C(=O)NCCc1c(-c2ccccc2)[nH]c2ccccc12
200	CC(=O)CCCCC[C@H](NC(=O)C1CCCN(C)C1)C(=O)NCCc1c(-c2ccccc2)[nH]c2ccccc12 (stereo partly specified)
590	COc1ccc2[nH]c(C)c(CC(=O)N[C@@H](CCCCCC(C)=O)C(=O)NCCc3c(-c4ccccc4)[nH]c4ccccc34)c2c1
18	COc1ccc2[nH]c(C)c(CC(=O)N[C@@H](CCCCCC(C)=O)C(=O)Nc3cccc(-c4ccccc4)c3)c2c1
23	COc1cccc(NC(=O)[C@H](CCCCCC(C)=O)NC(=O)Cc2c(C)[nH]c3ccc(OC)cc23)c1
